According to patent EP1179529A1, “NOVEL HYDROXAMIC ACID DERIVATIVES” (Daiichi Fine Chemical Co., Ltd., priority 1999, dated 2000):
Counter-ions that a name gives are not always drawn.

Legend:
[1] = target: MMP-3 (Homo sapiens, UniProt P08254); test: Assay for inhibition of stromelysin; type: biochemical; conditions: human fibroblast stromelysin activated with human plasmin; substrate fluorescein-labeled casein; 37°C, 2 hours, pH 7.8
Protocol: (§1) Described below are assays for biological activities of the compounds according to the present invention, formulations, dosage forms and dosage levels thereof, and miscellaneous matters. The efficacy of the compounds represented by the formula (I) according to the present invention as inhibitors of human fibroblast collagenase (metalloproteinase involved in the breakdown of tissues) is determined by a procedure based on the method of Y. Murawaki et al., Journal of Hepatology, 18, p328-334 (1993). The efficacy of the compounds (I) of this invention as inhibitors of human fibroblast stromelysin is determined by a procedure based on the method of S. S. Twining, Anal. Biochem., 143, p30 (1984). The assay results obtained are shown hereinbelow, together with biological examples which illustrate embodiments of the assay protocols.
The efficacy of compounds of the present invention to act as inhibitors of human fibroblast stromelysin was determined by the procedure of Twining (Anal. Biochem., 143, p.30, 1984).
Prostromelysin was activated by incubation with 20µ g/ml human plasmin at 37°C for 2 hours, and the reaction was stopped by addition of 2.8 mg/ml aqueous diisopropyl fluorophosphate. The inhibition was assayed using, as a substrate, fluorescein-labeled casein. To a solution of the substrate (1 mg/ml) in a 50 mM Tris-HCl buffer, pH 7.8, containing 10mM aqueous calcium chloride was added the activated stromelysin. The resultant solution was incubated at 37°C for 2 hours. The digestion of the substrate with the enzyme was stopped by addition of 5% trichloroacetic acid. Undigested substrates were precipitated by centrifugation at 3000 x g for 20 minutes. The supernatant was collected, followed by addition of a 0.5M Tris-HCl buffer, pH 8.5. The fluorescence was read using an excitation wavelength of 495 nm and an emission wavelength of 520 nm. The inhibitory potency of the compounds was calculated. IC50 represents the concentration of each test compound requited for 50% inhibition of cleavage of substrates by the enzyme alone. […]

[2] = target: T1, MMP-1 (Homo sapiens, UniProt P03956); test: Assay for inhibition of collagenase; type: biochemical; conditions: human fibroblast collagenase activated with APMA; substrate fluorescein-labeled bovine type I collagen; 35°C, 2 hours, pH 7.5
T1 sequence (P03956 100-469): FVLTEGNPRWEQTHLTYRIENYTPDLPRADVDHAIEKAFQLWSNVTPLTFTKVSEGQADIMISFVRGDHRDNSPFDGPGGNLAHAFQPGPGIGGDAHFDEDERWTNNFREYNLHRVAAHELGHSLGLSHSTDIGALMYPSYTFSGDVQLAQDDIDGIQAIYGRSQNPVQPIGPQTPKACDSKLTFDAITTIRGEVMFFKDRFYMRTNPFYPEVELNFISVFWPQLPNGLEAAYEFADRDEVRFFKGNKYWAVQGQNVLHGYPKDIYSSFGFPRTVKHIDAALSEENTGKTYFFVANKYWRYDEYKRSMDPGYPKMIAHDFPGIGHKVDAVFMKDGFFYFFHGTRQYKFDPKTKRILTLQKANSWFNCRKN
Protocol: as §1
The efficacy of compounds of the present invention to act as inhibitors of human fibroblast collagenase was determined by the procedure of Y. Murawaki et al. (Journal of Hepatology, 18, p.328-334, 1993).
Procollagenase was activated by incubation with 2 mM 4-aminophenylmercuric acetate (APMA) at 35°C for 2 hours. The inhibition was assayed using, as a substrate, fluorescein-labeled bovine type I collagen. To a solution of the substrate (0.5 mg/ml) in a 50 mM Tris-HCl buffer, pH 7.5, containing 0.4M aqueous sodium chloride and 10 mM aqueous calcium chloride was added the activated collagenase. The resultant solution was incubated at 35°C for 2 hours. The digestion of the substrate with the enzyme was stopped by addition of 80 mM o-phenanthroline, followed by addition of a porcine elastase solution formed by dissolving 25µ g/ml porcine elastase in the aforementioned Tris-HCl buffer. The mixture was incubated at 37°C for 10 minutes. To the resulting solution was added 70% ethanol, and a 170 mM Tris-HCl buffer, pH 9.5, containing 0.67 M aqueous sodium chloride. Undigested substrates were precipitated by centrifugation at 3000 x g for 20 minutes. The supernatant was collected and the fluorescence was read using an excitation wavelength of 495 nm and an emission wavelength of 520 nm. The inhibitory potency of the compounds was calculated. IC50 represents the concentration of each test compound requited for 50% inhibition of cleavage of substrates by the enzyme alone. The compounds of the present invention have potent inhibitory activities (Table 1).

Sequence of MMP-3 (P08254 100-477): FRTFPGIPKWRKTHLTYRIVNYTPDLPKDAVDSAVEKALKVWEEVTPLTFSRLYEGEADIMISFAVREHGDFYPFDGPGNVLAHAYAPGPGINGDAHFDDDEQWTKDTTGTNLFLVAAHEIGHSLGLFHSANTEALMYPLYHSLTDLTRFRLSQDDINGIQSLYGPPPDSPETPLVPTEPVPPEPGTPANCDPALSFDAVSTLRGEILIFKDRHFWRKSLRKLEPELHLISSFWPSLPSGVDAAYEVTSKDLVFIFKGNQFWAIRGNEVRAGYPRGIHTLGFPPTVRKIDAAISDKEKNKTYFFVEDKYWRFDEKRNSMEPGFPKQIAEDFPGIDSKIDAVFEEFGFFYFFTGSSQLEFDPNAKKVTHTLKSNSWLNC

| Compound | IC50 [1] | IC50 [2] |
| --- | --- | --- |
| COC(=O)[C@H](Cc1ccc(CNC(C)=N)cc1)NC(=O)[C@H](CC(C)C)[C@H](CCCc1ccccc1)C(=O)NO [Compound No. 9, N^a-[4-(N-Hydroxyamino)-2(R)-isobutyl-3(S)-(3-phenylpropyl)-succinyl]-L-4'-acetimidoyliminomethylphenylalanine methyl ester 1 hydrochloride] | 20 nM | 30 nM |
| CC(=N)NCc1ccc(C[C@H](NC(=O)[C@H](CC(C)C)[C@H](CCCc2ccccc2)C(=O)NO)C(=O)O)cc1 [Compound No. 10, N^a-[4-(N-Hydroxyamino)-2(R)-isobutyl-3(S)-(3-phenylpropyl)-succinyl]-L-4'-acetimidoyliminomethylphenylalanine · 1 acetate] | 70 nM | 500 nM |
| CC(C)C[C@@H](C(=O)N[C@@H](Cc1ccc(CN)cc1)C(=O)O)[C@H](CCCc1ccccc1)C(=O)NO [Compound No. 8, N^a-[4-(N-Hydroxyamino)-2(R)-isobutyl-3(S)-(3-phenylpropyl)-succinyl]-L-4'-aminomethylphenylalanine · 1 hydrochloride] |  | 340 nM |

Continued by falling IC50 [2], values first:

| IC50 [1] | IC50 [2] | Compound |
| --- | --- | --- |
| 29 nM | 418 nM | CC(C)C[C@@H](C(=O)N[C@@H](Cc1ccc(CN)cc1)C(=O)O)[C@H](CCCc1ccccc1)C(=O)NO [Compound No. 11, N^a-[4-(N-Hydroxyamino)-2(R)-isobutyl-3(S)-(3-phenylpropyl)-succinyl]-L-4'-aminomethylphenylalanine] |
|  | 167 nM | COC(=O)[C@H](Cc1ccc(CN)cc1)NC(=O)[C@H](CC(C)C)[C@H](CCCc1ccccc1)C(=O)NO [Compound No. 7, N^a-[4-(N-Hydroxyamino)-2(R)-isobutyl-3(S)-(3-phenylpropyl)-succinyl]-L-4'-aminomethylphenylalanine methyl ester · 1 acetate] |
